Source: patent publication US9028880B2, “Silica nanoparticle agent conjugates” (priority 2010, dated 2015)

How the values were obtained:
[1] = system: LNCaP prostate adenocarcinoma cells; experiment: In vitro toxicity (MTT assay); format: cell-based; details: Homo sapiens, MTT assay after 96 h, CPT or equivalent CPT
Method: 3.3. In vitro toxicity (MTT assay). LNCaP prostate adenocarcinoma cell lines were obtained from ATCC (Manassas, Va., USA). Cells were seeded in 96-well plates at 5,000 cells/well and grown in medium containing 10% fetal bovine serum at 37° C. for 24 h in a humidified 5% CO2 atmosphere. The medium was replaced with fresh medium containing CPT, CPT-NPs in concentrations ranging from 1 nM to 10 μM of CPT or equivalent CPT (CPT-NPs). At each concentration, six wells per plate were treated. The effect of the compounds on cell growth was measured by the MTT assay after 96 h. The medium was removed, the cells were rinsed with PBS, MTT solution was added at a concentration of 0.5 mg/mL, and the plates were incubated for 4 hours at 37° C. The medium was removed and the formazan crystals were solubilized in MTT solubilization solution. Absorbance was measured at 560 nm using a Victor V microplate reader (Perkin Elmer, Waltham, Mass.). The percentage of cell survival was calculated relative to untreated cells, and IC50 values were determined from plots of cell survival versus dose (Table 4).

LLC tumor [2] = experiment: In vivo tumor prevention study; parameters: species or system C57Bl/6 mice; details: s.c. co-injection with LLC cells
Method: To access the ability of Cpt-NCs to prevent establishment of a murine lung cancer in an in vivo model, Cpt-NCs were evaluated in the rapidly growing subcutaneous (s.c.) LLC tumor model in C57Bl/6 female mice. The ability of Cpt50 (5 mg/kg) to prevent LLC tumor establishment and growth was assessed by comparing to free Cpt (5 mg/kg) and LLC cancer cells alone without any treatment. The mice were s.c. injected with the mixture of [LLC and Cpt50], [LLC and Cpt] or LLC alone Animals were monitored clinically and the tumors were measured daily without knowledge of the treatment received.
Female C57Bl/6 mice, 12-13 weeks old, were anesthetized, shaved, and prepared for implantation of the tumor cells. LLC cells were collected from culture, and 750,000 cells were then mixed with Cpt50 and immediately injected subcutaneously into one flank of a mouse. The dose of equivalent Cpt was 5 mg/kg. Equivalent injections of cells with free CPT solubilized with Tween 80 (5%)/DMSO (10%) or PBS were also performed (n=5). The simultaneous injection procedure is required to assure that the cancer cells and the treatment are delivered to the same subcutaneous pocket as it would be easy to accidentally inject into different spaces when performing two separate injections.

LLC tumor [3] = experiment: In vivo tumor reduction study, single i.v. injection; parameters: species or system C57Bl/6 mice; details: emulsified Cpt 30 mg/kg i.v.; all animals reached end point at about day 5
Method: The efficacy of the drug conjugated silica NPs was next evaluated using xenograft models of LLC tumor developed by s.c. injection of LLC cells in the flank of C57BL/6 mice. […] Using Cpt as a reference point, the following regimens were administrated by a single i.v. injection: a, PBS; b, PEGylated blank silica NPs; c, emulsified Cpt, 30 mg/kg; d, Cpt-NP, 200 nm, 25 mg/kg; e, Cpt-NP, 20 nm, 25 mg/kg. Tumor size and body weight were then monitored for 10 days. […] Both Cpt-NPs 20 nm and 200 nm in diameter delayed tumor growth at Day 7 and 6, respectively, with statistical significance comparing with control group receiving PBS (p<0.05 by t-test). […] All animals in free Cpt group reached end point with >20% body weight loss at about day 5.
4.5. In vivo Tumor Reduction Study. Female C57Bl/6 mice, 8-week old, were anesthetized, shaved, and prepared for implantation of the tumor cells. […] After two weeks when tumors had reached ˜300 mm^3, mice were divided into five groups of five mice, minimizing weight and tumor size difference. Tumor-bearing mice were treated by intravenous injection of PBS (1×), PEGylated blank silica NPs (250 mg/kg), emulsified free CPT (Tween 80 (5%)/DMSO (10%) in PBS (1×), 30 mg/kg), CPT-NP (200 nm, 25 mg/kg) or CPT-NP (20 nm, 25 mg/kg). […]

MCF-7 tumors = experiment: In vivo tumor reduction study, MCF-7 xenograft
Method: To further study the effect of particle size, a xenograft human breast cancer model was chosen. Subcutaneous MCF-7 tumors developed on the flank of athymic nude mice were used to evaluate the antitumor efficacy of the drug-silica nanoconjugates with different sizes. The nude mice were implanted with an estrogen pellet and 1,000,000 MCF-7 cells per site. After tumors had developed to ˜40 mm^3, comparative efficacy studies were performed by dividing animals into six groups (n=20 or 24) to minimize weight and tumor size differences among the groups.
Female athymic nude, OVX, 9-week old mice were anesthetized, and prepared for implantation of the tumor cells. […]
After dosing, the animals were monitored closely, and measurements of the tumor size for each animal were performed at regular intervals using calipers without knowledge of which injection each animal had received. The tumor volume for each time point was calculated according to the formula (length)×(width)/2, where the long axis is the length, the short axis is the width. […] When an animal exited the study due to tumor size or treatment related death, the final tumor size recorded for the animal was included with the data used to calculate the mean size at subsequent time point.

Row | Compound | IC50 [1] | Day of statistically significant difference vs LLC group (LLC tumor [2]; 5 mg/kg) | Tumor growth prevention (LLC tumor [2]; 5 mg/kg equivalent Cpt) | body weight loss (LLC tumor [3]) | Day from which tumor growth delay was significant vs PBS group (MCF-7 tumors; NCs 20 mg/kg i.v. Q4d×3, Irinotecan 100 mg/kg i.p. Qwk×3, *p<0.05) | Body weight / systemic toxicity (MCF-7 tumors; NCs 20 mg/kg, Irinotecan 100 mg/kg)
1 | CC[C@@]1(O)C(=O)OCc2c1cc1n(c2=O)Cc2cc3ccccc3nc2-1 [CPT, Camptothecin] | 7 nM | 20 days | complete inhibition of tumor growth after Day 20 | > 20% |  | 
2 | CCc1c2c(nc3ccc(OC(=O)N4CCC(N5CCCCC5)CC4)cc13)-c1cc3c(c(=O)n1C2)COC(=O)[C@]3(O)CC [Irinotecan] |  |  |  |  | 8 days | Significant body weight loss
